# In ChEMBL document CHEMBL3576815, “Tankyrase 1 Inhibitors with Drug-like Properties Identified by Screening a DNA-Encoded Chemical Library” (J Med Chem, 2015):
# How the values were obtained:
# [1] = molecular target: Poly [ADP-ribose] polymerase 1 (Homo sapiens, UniProt P09874); test: Inhibition of full length PARP1 (unknown origin) expressed in Escherichia coli BL21 (DE3) assessed as reduction in ADP-ribosyl transferase activity using NAD+ by chemiluminescence detection based assay
# [2] = molecular target: T1, Poly [ADP-ribose] polymerase tankyrase-2 (Homo sapiens, UniProt Q9H2K2); test: Inhibition of tankyrase 2 catalytic domain (unknown origin) expressed in Escherichia coli BL21 (DE3) assessed as reduction in ADP-ribosyl transferase activity using NAD+ by chemiluminescence detection based assay
# T1 sequence (Q9H2K2 whole entry): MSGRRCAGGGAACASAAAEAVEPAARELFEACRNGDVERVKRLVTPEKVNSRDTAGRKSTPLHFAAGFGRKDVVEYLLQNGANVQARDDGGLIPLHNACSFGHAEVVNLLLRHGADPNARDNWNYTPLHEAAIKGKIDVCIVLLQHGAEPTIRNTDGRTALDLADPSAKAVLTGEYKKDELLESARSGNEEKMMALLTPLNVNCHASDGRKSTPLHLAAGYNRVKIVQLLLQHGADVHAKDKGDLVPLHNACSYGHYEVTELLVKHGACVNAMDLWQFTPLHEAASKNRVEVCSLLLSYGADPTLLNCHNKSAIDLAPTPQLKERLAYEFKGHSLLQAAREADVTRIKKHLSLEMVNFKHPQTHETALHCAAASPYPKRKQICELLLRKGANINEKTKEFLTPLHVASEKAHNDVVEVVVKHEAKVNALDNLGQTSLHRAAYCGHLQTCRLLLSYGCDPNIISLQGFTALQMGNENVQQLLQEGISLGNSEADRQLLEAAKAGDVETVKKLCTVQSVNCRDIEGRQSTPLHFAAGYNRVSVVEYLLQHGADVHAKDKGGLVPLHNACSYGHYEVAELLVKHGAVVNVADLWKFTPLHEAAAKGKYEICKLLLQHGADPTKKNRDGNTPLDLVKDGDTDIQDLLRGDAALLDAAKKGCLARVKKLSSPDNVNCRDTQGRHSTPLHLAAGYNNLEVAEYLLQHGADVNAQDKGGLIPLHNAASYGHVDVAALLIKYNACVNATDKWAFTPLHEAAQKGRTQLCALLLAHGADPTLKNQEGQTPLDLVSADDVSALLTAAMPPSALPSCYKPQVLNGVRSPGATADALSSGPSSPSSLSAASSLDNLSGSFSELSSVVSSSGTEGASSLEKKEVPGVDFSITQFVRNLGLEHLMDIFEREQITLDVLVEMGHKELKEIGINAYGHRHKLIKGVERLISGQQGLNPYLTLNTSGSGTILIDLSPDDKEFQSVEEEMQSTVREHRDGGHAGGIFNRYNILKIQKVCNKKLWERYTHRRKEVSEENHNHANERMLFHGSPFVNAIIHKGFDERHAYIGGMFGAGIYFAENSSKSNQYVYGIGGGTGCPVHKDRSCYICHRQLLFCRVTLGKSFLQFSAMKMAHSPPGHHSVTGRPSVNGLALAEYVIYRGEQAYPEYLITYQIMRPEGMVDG
# [3] = molecular target: T2, Poly [ADP-ribose] polymerase tankyrase-1 (Homo sapiens, UniProt O95271); test: Inhibition of hexa-histidine tagged recombinant tankyrase 1 biotinylated catalytic domain (amino acids 1106 to 1325) (unknown origin) expressed in Escherichia coli BL21 (DE3) assessed as reduction in ADP-ribosyl transferase activity using NAD+ by chemiluminescence detection based assay
# T2 sequence (O95271 whole entry): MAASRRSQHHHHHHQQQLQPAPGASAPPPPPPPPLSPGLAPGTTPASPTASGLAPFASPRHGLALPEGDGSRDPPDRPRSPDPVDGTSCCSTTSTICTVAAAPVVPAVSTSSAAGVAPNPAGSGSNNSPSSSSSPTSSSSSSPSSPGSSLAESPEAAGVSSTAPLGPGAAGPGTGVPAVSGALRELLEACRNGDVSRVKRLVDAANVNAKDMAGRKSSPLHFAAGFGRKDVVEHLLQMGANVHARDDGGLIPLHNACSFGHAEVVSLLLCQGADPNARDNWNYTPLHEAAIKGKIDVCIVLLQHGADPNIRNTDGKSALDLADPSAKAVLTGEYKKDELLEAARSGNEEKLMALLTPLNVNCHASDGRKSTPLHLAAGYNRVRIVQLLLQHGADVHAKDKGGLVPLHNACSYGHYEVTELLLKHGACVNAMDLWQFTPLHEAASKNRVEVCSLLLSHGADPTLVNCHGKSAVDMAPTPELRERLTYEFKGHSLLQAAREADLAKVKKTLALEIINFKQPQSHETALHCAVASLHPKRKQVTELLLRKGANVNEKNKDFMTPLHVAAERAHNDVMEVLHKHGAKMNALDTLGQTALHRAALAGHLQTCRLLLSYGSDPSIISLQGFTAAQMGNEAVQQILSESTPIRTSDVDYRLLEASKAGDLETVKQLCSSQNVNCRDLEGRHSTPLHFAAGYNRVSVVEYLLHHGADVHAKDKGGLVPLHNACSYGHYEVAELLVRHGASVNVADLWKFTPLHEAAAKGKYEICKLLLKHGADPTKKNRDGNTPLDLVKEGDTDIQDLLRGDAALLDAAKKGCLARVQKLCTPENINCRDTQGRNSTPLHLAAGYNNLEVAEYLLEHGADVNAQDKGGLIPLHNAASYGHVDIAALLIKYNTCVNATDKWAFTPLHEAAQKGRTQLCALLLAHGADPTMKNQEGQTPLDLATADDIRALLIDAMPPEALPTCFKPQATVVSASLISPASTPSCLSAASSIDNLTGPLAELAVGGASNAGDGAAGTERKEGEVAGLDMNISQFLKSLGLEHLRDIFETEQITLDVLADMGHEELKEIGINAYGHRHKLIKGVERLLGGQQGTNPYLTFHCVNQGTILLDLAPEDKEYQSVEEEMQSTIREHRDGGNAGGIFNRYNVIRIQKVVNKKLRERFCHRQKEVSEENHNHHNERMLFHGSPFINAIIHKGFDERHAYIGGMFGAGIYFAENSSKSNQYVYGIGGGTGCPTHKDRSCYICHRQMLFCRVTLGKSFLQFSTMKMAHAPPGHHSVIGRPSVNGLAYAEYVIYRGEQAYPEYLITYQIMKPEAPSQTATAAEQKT
# [4] = molecular target: T3, Protein mono-ADP-ribosyltransferase PARP10 (Homo sapiens, UniProt Q53GL7); test: Inhibition of full length PARP10 (unknown origin) expressed in Escherichia coli BL21 (DE3) assessed as reduction in ADP-ribosyl transferase activity using NAD+ by chemiluminescence detection based assay
# T3 sequence (Q53GL7 whole entry): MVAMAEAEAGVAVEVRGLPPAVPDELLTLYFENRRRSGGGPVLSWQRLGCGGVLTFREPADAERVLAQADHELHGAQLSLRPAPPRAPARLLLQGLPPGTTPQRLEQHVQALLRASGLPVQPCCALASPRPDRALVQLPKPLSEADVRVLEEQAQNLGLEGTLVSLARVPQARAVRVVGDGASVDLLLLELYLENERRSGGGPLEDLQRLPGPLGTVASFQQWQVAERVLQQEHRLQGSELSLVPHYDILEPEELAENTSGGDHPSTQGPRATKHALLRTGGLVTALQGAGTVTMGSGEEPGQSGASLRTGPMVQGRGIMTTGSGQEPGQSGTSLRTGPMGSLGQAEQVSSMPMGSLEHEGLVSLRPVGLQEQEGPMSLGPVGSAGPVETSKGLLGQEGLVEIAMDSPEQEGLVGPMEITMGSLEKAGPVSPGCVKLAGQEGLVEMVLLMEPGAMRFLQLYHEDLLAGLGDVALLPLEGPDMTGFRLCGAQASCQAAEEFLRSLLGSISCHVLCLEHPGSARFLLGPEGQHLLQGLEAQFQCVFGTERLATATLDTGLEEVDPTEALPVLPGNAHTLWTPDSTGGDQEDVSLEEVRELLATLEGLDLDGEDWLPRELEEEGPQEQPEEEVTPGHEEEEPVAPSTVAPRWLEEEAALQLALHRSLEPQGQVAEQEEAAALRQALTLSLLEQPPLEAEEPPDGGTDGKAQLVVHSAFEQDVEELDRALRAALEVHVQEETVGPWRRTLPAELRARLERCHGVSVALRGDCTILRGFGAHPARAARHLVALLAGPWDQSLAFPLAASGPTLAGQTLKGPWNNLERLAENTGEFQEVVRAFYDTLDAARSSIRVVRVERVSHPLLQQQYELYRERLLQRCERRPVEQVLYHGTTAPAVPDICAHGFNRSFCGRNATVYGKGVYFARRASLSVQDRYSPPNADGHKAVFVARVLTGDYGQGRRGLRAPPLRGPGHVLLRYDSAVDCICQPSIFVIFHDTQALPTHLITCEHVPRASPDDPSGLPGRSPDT
# Sequence of Poly [ADP-ribose] polymerase 1 (P09874 whole entry, the tested form may be a part): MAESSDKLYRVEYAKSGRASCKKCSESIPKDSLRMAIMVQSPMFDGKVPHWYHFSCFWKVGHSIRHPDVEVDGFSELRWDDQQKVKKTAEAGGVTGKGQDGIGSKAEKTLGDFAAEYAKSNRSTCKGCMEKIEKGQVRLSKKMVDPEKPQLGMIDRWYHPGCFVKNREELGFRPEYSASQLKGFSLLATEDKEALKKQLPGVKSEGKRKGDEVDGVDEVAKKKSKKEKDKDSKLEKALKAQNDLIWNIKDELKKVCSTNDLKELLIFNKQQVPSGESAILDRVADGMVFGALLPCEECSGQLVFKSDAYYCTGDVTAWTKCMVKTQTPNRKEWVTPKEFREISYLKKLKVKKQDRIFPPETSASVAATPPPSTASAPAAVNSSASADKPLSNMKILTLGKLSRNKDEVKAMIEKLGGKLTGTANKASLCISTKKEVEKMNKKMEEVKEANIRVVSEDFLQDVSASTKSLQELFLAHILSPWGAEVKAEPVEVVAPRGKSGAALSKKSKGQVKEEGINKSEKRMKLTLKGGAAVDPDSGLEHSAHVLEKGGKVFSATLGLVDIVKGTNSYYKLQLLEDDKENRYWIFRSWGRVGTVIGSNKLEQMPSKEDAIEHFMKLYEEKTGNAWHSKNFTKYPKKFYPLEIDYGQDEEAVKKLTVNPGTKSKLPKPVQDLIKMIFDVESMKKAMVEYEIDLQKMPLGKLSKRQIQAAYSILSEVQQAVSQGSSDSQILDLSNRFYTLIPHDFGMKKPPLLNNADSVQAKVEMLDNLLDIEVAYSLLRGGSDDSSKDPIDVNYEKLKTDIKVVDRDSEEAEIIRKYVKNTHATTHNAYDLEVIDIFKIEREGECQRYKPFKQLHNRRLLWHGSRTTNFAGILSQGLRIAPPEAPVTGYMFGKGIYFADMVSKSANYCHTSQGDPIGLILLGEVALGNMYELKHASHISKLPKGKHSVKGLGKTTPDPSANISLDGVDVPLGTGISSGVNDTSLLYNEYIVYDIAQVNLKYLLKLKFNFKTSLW
compound,measurement,setting,value
O=C1CCN(c2ccccc2C(=O)NCCc2nc(-c3ccccn3)no2)C(=O)N1,IC50,[1],260 nM
same,IC50,[2]; read-out: IC50,8100 nM
same,IC50,[2]; read-out: pIC50 (converted),8130 nM
same,IC50,[3],250 nM
same,IC50,[4],2200 nM
O=C1CCN(c2ccccc2C(=O)NCc2ccc(-n3cccn3)cc2)C(=O)N1,IC50,[1],220 nM
same,IC50,[2]; read-out: IC50,8300 nM
same,IC50,[2]; read-out: pIC50 (converted),8320 nM
same,IC50,[3],330 nM
same,IC50,[4],> 50000 nM
O=C1CCN(c2ccccc2C(=O)NCCc2ccc(Cl)cc2Cl)C(=O)N1,IC50,[1],110 nM
same,IC50,[3],700 nM
same,IC50,[4],> 50000 nM
O=C1CCN(c2ccccc2C(=O)NCCc2ccc(Br)cc2)C(=O)N1,IC50,[2]; read-out: IC50,910 nM
same,IC50,[2]; read-out: pIC50 (converted),912 nM
same,IC50,[3],350 nM
same,IC50,[4],> 50000 nM
O=C1CCN(c2ccccc2C(=O)NCCc2ccc(Cl)cc2)C(=O)N1,IC50,[2]; read-out: IC50,2400 nM
same,IC50,[2]; read-out: pIC50 (converted),2400 nM
same,IC50,[3],570 nM
same,IC50,[4],> 50000 nM
O=C1CCN(c2ccccc2C(=O)NCCc2ccccc2)C(=O)N1,IC50,[3],4600 nM
CN(Cc1ccc(-n2cccn2)cc1)C(=O)c1ccccc1N1CCC(=O)NC1=O,IC50,[3],2500 nM
COc1ccc2c(c1)C(CC(=O)N[C@@H](CNC(=O)c1ccccc1N1CCC(=O)NC1=O)C(N)=O)CC2=O (some centres not stated),IC50,[1],28 nM
same,IC50,[2]; read-out: IC50,470 nM
same,IC50,[2]; read-out: pIC50 (converted),468 nM
same,IC50,[3],370 nM
same,IC50,[4],> 50000 nM
COc1ccc2c(c1)C(CC(=O)NCCNC(=O)c1ccccc1N1CCC(=O)NC1=O)CC2=O (configuration not stated),IC50,[1],41 nM
same,IC50,[2]; read-out: IC50,7900 nM
same,IC50,[2]; read-out: pIC50 (converted),7940 nM
same,IC50,[3],290 nM
COc1ccc2c(c1)C(CC(=O)N1CCN(C(=O)c3ccccc3N3CCC(=O)NC3=O)CC1)CC2=O (configuration not stated),IC50,[1],200 nM
same,IC50,[2]; read-out: IC50,330 nM
same,IC50,[2]; read-out: pIC50 (converted),331 nM
same,IC50,[3],290 nM
same,IC50,[4],34000 nM
